# Test results taken from patent publication US8604206B2, “Compositions for preventing and/or treating degenerative disorders of the central nervous system” (Amicus Therapeutics, Inc., priority 2009, dated 2013).
# Structures can show the parent of a compound that is named as a salt. Where two headings read alike, the source gives them in different places.
# Legend:
# lysosomal GCase = lysosomal GCase (Homo sapiens (Human), UniProt P04062); assay: In situ lysosomal GCase inhibition and washout assay in fibroblasts from a normal subject; format: cell-based; details: for in situ washout: fibroblasts treated at IC90, then drug-free medium; for IC50: fibroblasts, 16-24 hours with compound, PFBFDβGlu substrate
# Chain of lysosomal GCase (P04062 40-536): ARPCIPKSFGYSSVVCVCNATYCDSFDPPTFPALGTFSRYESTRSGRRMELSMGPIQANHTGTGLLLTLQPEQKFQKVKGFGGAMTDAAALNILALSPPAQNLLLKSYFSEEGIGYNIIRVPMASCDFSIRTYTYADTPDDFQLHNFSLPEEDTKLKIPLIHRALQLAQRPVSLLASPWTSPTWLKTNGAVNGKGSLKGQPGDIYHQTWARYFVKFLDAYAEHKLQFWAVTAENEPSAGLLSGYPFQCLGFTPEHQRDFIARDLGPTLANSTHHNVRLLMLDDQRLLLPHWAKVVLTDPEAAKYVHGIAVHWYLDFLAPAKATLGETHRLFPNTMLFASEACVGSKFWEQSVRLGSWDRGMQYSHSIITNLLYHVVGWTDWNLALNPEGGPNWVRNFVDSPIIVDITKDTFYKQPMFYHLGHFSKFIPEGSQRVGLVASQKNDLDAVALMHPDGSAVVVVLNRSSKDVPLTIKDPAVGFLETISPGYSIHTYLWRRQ
# Description: The effect of the novel compounds of the present invention on lysosomal GCase activity was assayed in situ using fibroblasts established from a normal subject. Cells seeded in 48-well plates were incubated with the indicated concentrations of compound for 16-24 hours. For the dose-response assays, cells were incubated with the in situ substrate 5-(pentafluorobenzoylamino)fluorescein di-β-D-glucopyranoside (PFBFDβGlu) for 1 hour and subsequently lysed to determine the extent of substrate hydrolysis in the presence of compound. […] Inhibition was determined as the ratio of activity in the presence of compound to that in the absence of compound. […] Cells were washed extensively and incubated in drug-free medium to allow net compound efflux from cells. Cells were then tested for lysosomal GCase activity at 2 hour intervals over a total period of 8 hours following compound removal. The increase in activity over time was fitted with a single exponential function to determine the compound's washout time.
# GCase [1] = molecular target: GCase (Homo sapiens (Human), UniProt P04062); assay: GCase activity enhancement (EC50, Emax) of Table 2B; format: cell-based; details: for increase in GCase activity compared to IFG-tartrate: compared to reference compound IFG-tartrate
# Chain of GCase (Homo sapiens (Human), UniProt P04062) (P04062 40-536): as above
# [2] = molecular target: recombinant human GCase (rhGCase; Cerezyme®) (Homo sapiens (Human), UniProt P04062, R534H); assay: In vitro enzyme inhibition assay (4-MU-β-D-Glc substrate), inhibition constants; format: biochemical
# Chain of recombinant human GCase (rhGCase; Cerezyme®) (P04062 40-536 R534H limits assumed): as the sequence (P04062 40-536) above, with R495H counted along it
# Description: The binding affinity (defined here by Ki binding constant) of GCase for novel compounds of the present invention were empirically determined using enzyme inhibition assays. In brief, the enzyme inhibition assays used monitored the ability of a test compound to bind and prevent the hydrolysis of a fluorogenic substrate in a concentration-dependent mariner. Specifically, the enzyme activity of recombinant human GCase (rhGCase; Cerezyme®, Genzyme Corp.) was measured using the 4-methylumbelliferyl-β-D-glucopyranoside (4-MU-β-D-Glc) fluorogenic substrate in the absence or in the presence of varying amounts of each test compound. […] The enzyme inhibition assays were performed at both pH 7.0 (endoplasmic reticulum pH) and at pH 5.2 (lysosomal pH) to gain insight into the binding affinity (i.e., potency) of compounds for GCase in the endoplasmic reticulum and lysososome.
# Various concentrations of test compounds were prepared in buffer “M” consisting of 50 mM sodium phosphate buffer with 0.25% sodium taurocholate at pH 7.0 and pH 5.2. Enzyme (Cerezyme®, a recombinant form of the human enzyme β-glucocerebrosidase) was also diluted in the same buffer “M” at pH 7.0 and pH 5.2. […] Five microliters of diluted enzyme was added to 15 μl of the various inhibitor concentrations or buffer “M” alone and incubated at 37° C. for 1 hour with 50 μl of the substrate preparation to assess β-glucosidase activity at pH 7.0 and pH 5.2. […] Fluorescence was measured on a plate reader for 1 sec/well using 355 nm excitation and 460 nm emission.
# GCase [3] = molecular target: GCase (Mus musculus, UniProt P17439); assay: GCase enhancement in tissues of orally dosed mice; format: in vivo; details: 9 doses over 2 weeks
# Chain of GCase (Mus musculus, UniProt P17439) (P17439 20-515 limits assumed): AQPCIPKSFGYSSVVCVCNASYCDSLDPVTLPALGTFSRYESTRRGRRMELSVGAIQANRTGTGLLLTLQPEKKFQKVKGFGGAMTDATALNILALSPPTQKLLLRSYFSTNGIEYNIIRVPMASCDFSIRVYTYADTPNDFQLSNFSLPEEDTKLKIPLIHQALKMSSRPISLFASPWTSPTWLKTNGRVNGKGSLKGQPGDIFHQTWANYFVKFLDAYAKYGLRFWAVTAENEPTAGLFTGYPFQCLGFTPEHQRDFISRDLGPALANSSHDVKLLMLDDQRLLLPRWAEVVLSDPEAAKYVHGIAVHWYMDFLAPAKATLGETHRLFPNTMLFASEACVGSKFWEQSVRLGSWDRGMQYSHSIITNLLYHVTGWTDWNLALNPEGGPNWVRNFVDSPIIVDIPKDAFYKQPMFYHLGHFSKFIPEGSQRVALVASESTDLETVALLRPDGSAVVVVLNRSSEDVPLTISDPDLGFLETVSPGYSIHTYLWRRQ
# Description: The ability of orally administered test compounds ((3R,4R,5S)-5-(difluoromethyl)piperidine-3,4-diol, (3R,4R,5S)-5-(1-fluoroethyl)piperidine-3,4-diol, (3R,4R,5S)-5-((R)-1-fluoropropyl)piperidine-3,4-diol hydrochloride, or (3R,4R,5S)-5-benzylpiperidine-3,4-diol) to elevate GCase levels was assessed in mice. For this purpose, 8-week old wild-type male mice (C57BL/6) were administered a […] p.o. (gavage) dose of a compound of the present invention (i.e., (3R,4R,5S)-5-(difluoromethyl)piperidine-3,4-diol, (3R,4R,5S)-5-(1-fluoroethyl)piperidine-3,4-diol, (3R,4R,5S)-5-((R)-1-fluoropropyl)piperidine-3,4-diol hydrochloride, or (3R,4R,5S)-5-benzylpiperidine-3,4-diol). The dosing solutions were prepared in water. Compounds were administered over 2 weeks as follows: week 1, Mon-Fri (On), Sat-Sun (Off); week 2, Mon-Thu (On); necropsy on Friday. Thus, a total of 9 doses (dosing solutions prepared fresh every day) were given to each mouse, with a 24-hour washout between the last dose and necropsy.
# Plasma was collected by spinning blood at 2700 g for 10 minutes at 4° C. Liver, spleen, lung, and brain tissues were removed, washed in cold PBS, blotted dry, flash frozen on dry ice, and stored at −80° C. until analysis. GCase levels were measured by homogenizing approximately 50 mg tissue in 500 μL McIlvane (MI) buffer (100 mM sodium citrate, 200 mM sodium phosphate dibasic, 0.25% sodium taurocholate, and 0.1% Triton X-100, pH 5.2) at pH 5.2 for 3-5 seconds on ice with a micro homogenizer. Homogenates were then incubated at room temperature without and with 2.5 mM conduritol-B-epoxide (CBE) for 30 min. Finally, 3.7 mM 4-methylumbeliferryl-β-glucoside (4-MUG) substrate was added and incubated at 37° C. for 60 min. […] Fluorescence was measured on a plate reader for 1 sec/well using 355 nm excitation and 460 nm emission. Total protein was determined in lysates using the MicroBCA kit according to the manufacturer's instructions. A 4-methylumbelliferone (4-MU) standard curve ranging from 1.0 nM to 50 μM was run in parallel for conversion of raw fluorescence data to absolute GCase activity (in the presence and absence of CBE) and expressed as nanomoles of 4-MU released per milligram of protein per hour (nmol/mg protein/hr). GCase levels and protein levels were calculated using Microsoft Excel (Redmond, Wash.) and GraphPad Prism version 4.02.
# Rat pharmacokinetics = format: in vivo; details: listed as (3R,4R,5S)-5-(1-fluoroethyl)piperidine-3,4-diol-HCl
# Description: Pharmacokinetic (PK) data was obtained in rats to assess the bioavailability of test compound. In particular, the following PK parameters were calculated: bioavailability as measured by area under the Concentration/Time curve (AUC), fraction of dose available (% F; further defined below), clearance (CL), volume of distribution (Vd), and half-life (t½). […] Three rats were used per dosing group. Blood was collected over a 24-hr period. The time points for blood collection after intravenous administration were: 0, 2.5, 5, 10, 15, 30, 45 min, 1, 2, 4, 8, 12, and 24 hrs; time points for blood collection after p.o. administrations were: 0, 5, 15, 30, 45 min, 1, 2, 3, 4, 8, 12, and 24 hrs. Plasma samples were analyzed for compound levels by LC-MS/MS at PPD. Raw data was analyzed by non-compartmental analysis in Win-nonLin to calculate VD, % F, CL, and t1/2.
# [4] = Blood brain barrier penetration, plasma and brain levels after oral administration; format: in vivo, mouse; details: mice, single 30 mg/kg (free base equivalent) p.o.
# Description: For this purpose, 8-week old wild-type male mice (C57BL/6) were administered a single 30 mg/kg (free base equivalent) p.o. dose of reference or test compound by gavage (n=3 mice per time point). Dosing solutions were prepared in water. After dosing, mice were euthanized with CO2 at the following time points: 0-, 0.5-, 1-, and 4-hour post-dose. […] Similarly, brains were collected from each mouse. Plasma was derived by spinning whole blood at 2,700×g for 10 minutes at 4° C. followed by storage on dry ice. Whole brains were washed in cold PBS to remove contaminating blood, blotted dry, flash frozen on dry ice, and ultimately stored at −80° C. until analysis. To prepare brain samples for analysis, 50-100 mg of tissue was homogenized in […] of water/mg tissue. Samples were then clarified by centrifugation. Next, 25 μl of the brain homogenate supernatant or 25 μl of plasma were combined with 25 μl of acetonitrile:water (95/5). […] Samples were again clarified by centrifugation and 75 μl of the supernatant was combined with 75 μl of acetonitrile. Samples were then analyzed for compound levels by LC-MS/MS at PPD Inc. (3230 Deming Way, Middleton, Wis. 53562). In brief, a Thermo Betasil, Silica-100, 50×3 mm, 5μ column equilibrated with a mixture of mobile phase consisting of 5 mM ammonium formate and 0.05% formic acid in (A) 95:5 acetonitrile:water or (B) 70:20:10 methanol:water:acetonitrile was employed. Between 20 and 30 μl sample was injected for analysis. For calculating drug concentrations, raw data for plasma (ng/mL) and brain (ng/g) was converted to nM using the molecular weight of respective compounds and assuming 1 g of tissue is equivalent to 1 mL volume. Concentration as a function of time was plotted in GraphPad Prism version 4.02.
# [5] = pH 5.2, Cheng-Prusoff from IC50, read-out: Ki (μM) pH 5.2
# [6] = pH 5.2, read-out: IC50 (μM) pH 5.2
# [7] = pH 7.0, Cheng-Prusoff from IC50, read-out: Ki (μM) pH 7.0
# [8] = pH 7.0, read-out: IC50 (μM) pH 7.0
# [9] = pH 5.2, repeated in Table 3A, read-out: Ki pH 5.2
# [10] = pH 5.2, repeated in Table 3B, read-out: Ki pH 5.2
SMILES,in situ washout (lysosomal GCase) [h],IC50 (lysosomal GCase) [µM],EC50 (GCase [1]) [µM],"Ki [2, 5] [µM]","IC50 [2, 6] [µM]","Ki [2, 7] [µM]","IC50 [2, 8] [µM]",other results
"CC(O)[C@H]1CNC[C@@H](O)[C@@H]1O (single isomer, unassigned) [Cmpd 9]",10.5 ± 1.75,0.518 ± 0.022,0.49 ± 0.06,0.044 ± 0.0017,0.107 ± 0.0041,0.01 ± 0.0004,0.02 ± 0.0008,Emax (GCase [1]): 83.7 ± 2.9%
"C[C@H](O)[C@H]1CNC[C@@H](O)[C@@H]1O (single isomer, unassigned) [Cmpd 10]",12 ± 1.65,0.798 ± 0.043,1.06 ± 0.12,0.142 ± 0.0088,0.343 ± 0.021,0.035 ± 0.0021,0.066 ± 0.0041,–
"CC(O)[C@H]1CNC[C@@H](O)[C@@H]1O (single isomer, unassigned)",–,–,–,–,–,–,–,inhibition of GCase activity (lysosomal GCase): inhibited GCase activity; increase in GCase activity compared to IFG-tartrate (GCase [1]): enhanced enzyme activity to the same maximum level as reference compound IFG-tartrate at much lower concentration
"CC(F)[C@H]1CNC[C@@H](O)[C@@H]1O (single isomer, unassigned)",–,–,–,–,–,–,–,"GCase increase (fold) (GCase [3]; brain, 10 mg/kg FBE p.o., 24-hour washout): 1.5 fold; GCase enhancement in brain and spleen (GCase [3]; mice, p.o.): significant GCase enhancement in brain and spleen; inhibition of GCase activity (lysosomal GCase): inhibited GCase activity; in situ washout from the lysosomal compartment compared to IFG-tartrate (lysosomal GCase; compared to reference compound IFG-tartrate): considerably faster than reference compound IFG-tartrate; AUClast (hr*ng/ml), AUC0-24 hr (Rat pharmacokinetics; IV, 3 mg/kg free base): 1370 ± 109 ng·h/mL; CL (Rat pharmacokinetics; IV, 3 mg/kg free base): 2.188 ± 0.173 L/h/kg; Cmax (Rat pharmacokinetics; IV, 3 mg/kg free base): 2.427 ± 0.192 µg/mL; VD (Rat pharmacokinetics; IV, 3 mg/kg free base): 6.304 ± 0.927 L/kg; t1/2 (Rat pharmacokinetics; IV, 3 mg/kg free base): 2.06 ± 0.47 h; AUClast (hr*ng/ml), AUC0-24 hr (Rat pharmacokinetics; PO, 10 mg/kg free base): 4251 ± 88 ng·h/mL; t1/2 (Rat pharmacokinetics; PO, 10 mg/kg free base): 3.0 ± 0.22 h; AUClast (hr*ng/ml), AUC0-24 hr (Rat pharmacokinetics; PO, 30 mg/kg free base): 14229 ± 127 ng·h/mL; Cmax (Rat pharmacokinetics; PO, 30 mg/kg free base): 4.68 ± 0.369 µg/mL; AUClast (hr*ng/ml), AUC0-24 hr (Rat pharmacokinetics; PO, 100 mg/kg free base): 50946 ± 713 ng·h/mL; Cmax (Rat pharmacokinetics; PO, 100 mg/kg free base): 15.733 ± 0.622 µg/mL; t1/2 (Rat pharmacokinetics; PO, 100 mg/kg free base): 2.4 ± 0.16 h; increase in GCase activity compared to IFG-tartrate (GCase [1]): enhanced enzyme activity to the same maximum level as reference compound IFG-tartrate at much lower concentration; blood brain barrier crossing compared to IFG-tartrate [4]: crossed the blood brain barrier more readily as compared to IFG-tartrate; levels detected in brain compared to IFG-tartrate [4]: higher levels"
"O[C@@H]1[C@@H]([C@H](O)c2ccccc2)CNC[C@H]1O [(3R,4R,5R)-5-((S)-hydroxy(phenyl)methyl)-piperidine-3,4-diol]",–,–,4.99 ± 0.86,1.36 ± 0.1,3.29 ± 0.25,0.0089 ± 0.0018,0.017 ± 0.0035,"Ki [2, 9]: 1.36 ± 0.1 µM; Ki [2, 10]: 1.36 ± 0.1 µM"
C[C@@H](F)[C@@H]1CNC[C@@H](O)[C@@H]1O.Cl [Cmpd 14],3.7 ± 0.63,–,–,–,–,–,–,Emax (%) (GCase [1]): 89.7 ± 3.5%
"C[C@H](F)C1CNC[C@@H](O)[C@@H]1O (stereo in doubt) [Cmpd 13, (3R,4R,5R)-5((S)-1-Fluoroethyl)piperidine 3,4-diol Hydrochloride]",2.7 ± 0.12,–,–,–,–,–,–,–
"C[C@@H](F)[C@@H]1CNC[C@@H](O)[C@@H]1O.Cl [Cmpd 14, (3R,4R,5R)-5((R)-(1-Fluoroethyl)piperidine 3,4-diol Hydrochloride]",–,0.061 ± 0.019,0.026 ± 0.003,0.016 ± 0.0007,0.038 ± 0.0016,0.004 ± 0.0001,0.007 ± 0.0003,–
"CC(C)(O)[C@H]1CNC[C@@H](O)[C@@H]1O [(3R,4R,5S)-5-(2-hydroxypropan-2-yl)piperidine-3,4-diol]",–,–,0.791 ± 0.162,0.097 ± 0.0015,0.234 ± 0.0037,0.015 ± 0.0007,0.029 ± 0.0013,"Ki [2, 9]: 0.097 ± 0.0015 µM; Ki [2, 10]: 0.097 ± 0.0015 µM"
